biological target: T1, aldosterone receptor (Rattus norvegicus, UniProt P22199); assay: Binding inhibition test for aldosterone receptor ([3H]aldosterone, rat renal soluble fraction); settings: [3H]aldosterone 2 nM, rat renal soluble fraction, in the presence of 2 μM RU-486, 4° C. about 18 hours; read-out: MR IC50
T1 construct: centrifuged at 105,000 g for 30 minutes, and then a supernatant was collected as a renal soluble fraction; from tissue; host or cells: rat kidney (adrenalectomized rat), 105,000 g supernatant (cytosol)
T1 sequence (P22199 1-981): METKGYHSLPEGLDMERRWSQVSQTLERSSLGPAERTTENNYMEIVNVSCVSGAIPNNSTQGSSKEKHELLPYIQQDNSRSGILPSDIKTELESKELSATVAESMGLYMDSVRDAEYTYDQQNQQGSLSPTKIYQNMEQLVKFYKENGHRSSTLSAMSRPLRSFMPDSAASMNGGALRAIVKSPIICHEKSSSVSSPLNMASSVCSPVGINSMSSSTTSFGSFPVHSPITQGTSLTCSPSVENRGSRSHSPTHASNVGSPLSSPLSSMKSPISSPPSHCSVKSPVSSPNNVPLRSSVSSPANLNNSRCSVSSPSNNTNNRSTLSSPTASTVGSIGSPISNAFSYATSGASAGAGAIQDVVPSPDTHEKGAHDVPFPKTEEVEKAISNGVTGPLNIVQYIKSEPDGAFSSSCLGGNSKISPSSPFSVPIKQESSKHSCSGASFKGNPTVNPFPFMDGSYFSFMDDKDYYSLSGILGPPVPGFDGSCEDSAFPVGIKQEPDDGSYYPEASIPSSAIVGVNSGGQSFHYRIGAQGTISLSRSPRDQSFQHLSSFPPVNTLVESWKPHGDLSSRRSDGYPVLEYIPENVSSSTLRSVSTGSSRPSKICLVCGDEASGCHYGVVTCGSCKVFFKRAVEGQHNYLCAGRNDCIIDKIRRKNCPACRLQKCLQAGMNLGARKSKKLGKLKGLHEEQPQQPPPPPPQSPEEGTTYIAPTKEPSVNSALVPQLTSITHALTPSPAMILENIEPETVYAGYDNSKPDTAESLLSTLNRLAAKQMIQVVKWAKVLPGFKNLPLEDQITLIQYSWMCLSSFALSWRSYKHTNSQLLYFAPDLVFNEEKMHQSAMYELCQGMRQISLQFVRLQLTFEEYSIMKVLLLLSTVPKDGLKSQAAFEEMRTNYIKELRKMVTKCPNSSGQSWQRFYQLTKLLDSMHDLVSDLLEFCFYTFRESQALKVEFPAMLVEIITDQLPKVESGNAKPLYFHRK
Experimental: Binding Inhibition Test for Aldosterone Receptor
A rat was layed open in flank regions (on both sides) to remove both adrenal glands. After stitching up the incision, the rat was returnd to a breeding cage again. After removing the kidney from the rat reared for about 3 to 5 days, the kidney was homogenized in 0.1 M Tris-HCl, 0.25M sucrose, 0.1M Na2MoO4 and 2 mM DTT buffer solution (pH7.4). The resultant was centrifuged at 105,000 g for 30 minutes, and then a supernatant was collected as a renal soluble fraction.
The rat renal soluble fraction (0.5 to 1.5 mg), a labeled ligand [^3H] aldosterone (2 nM) and a test article were reacted in the presence of 2 μM RU-486 (glucocorticoid receptor antagonist) in 100 μL of total amounts at 4° C. for about 18 hours. Afterwards, to the reaction solution was added 50 μL of 5% dextran-coated activated charcoal, and the mixture was immingled, and then centrifuged at 3,000 g for 5 minutes. Then, a supernatant (100 μL) was collected and mixed with a liquid scintillator ACS-II (Amersham) (3.5 mL), and then analyzed its radioactivity by a liquid scintillation counter (manufactured by Packard, Tri Carb 2700TR). A non-specific binding was obtained by addition of 2 μM aldosterone to a reaction solution. […]
Binding inhibition rate (%)=100−{(B−N)/(B0−N)}×100
B: labeled ligand binding amounts in the presence of a test article and a labeled ligand
B0: labeled ligand binding amounts in the absence of a test article
N: labeled ligand binding amounts in the presence of excess aldosterone (2 μM)
Test example 1 was carried out for compounds obtained in the Examples.

| SMILES | IC50 [nM] |
| --- | --- |
| CS(=O)(=O)c1ccc(NC(=O)c2ccc(-c3ccccc3OC(F)(F)F)c(CN3CCCC3)c2)cc1 [Example 160] | 2000 |
| CS(=O)(=O)c1ccc(NC(=O)c2ccc(-c3ccccc3OC(F)(F)F)c(CN3CCOCC3)c2)cc1 [Example 162] | 660 |
| CS(=O)(=O)c1ccc(NC(=O)c2ccc(-c3ccccc3OC(F)(F)F)c(CN3CCCOCC3)c2)cc1 [Example 163] | < 10000 |
| CS(=O)(=O)c1ccc(NC(=O)c2ccc(-c3ccccc3OC(F)(F)F)c(CN3CC(F)(F)C3)c2)cc1 [Example 171] | < 10000 |
| CS(=O)(=O)c1ccc(NC(=O)c2ccc(-c3ccccc3OC(F)(F)F)c(CN3CCC(F)(F)CC3)c2)cc1 [Example 174] | 940 |
| CS(=O)(=O)c1ccc(NC(=O)c2ccc(-c3ccccc3OC(F)(F)F)c(CNCC(F)F)c2)cc1 [Example 176] | 390 |
| CS(=O)(=O)c1ccc(NC(=O)c2ccc(-c3ccccc3OC(F)(F)F)c(CNCc3ccccc3)c2)cc1 [Example 180] | 280 |
| Cn1cccc1CNCc1cc(C(=O)Nc2ccc(S(C)(=O)=O)cc2)ccc1-c1ccccc1OC(F)(F)F [Example 182] | 350 |
| CCN(Cc1ccccc1)Cc1cc(C(=O)Nc2ccc(S(C)(=O)=O)cc2)ccc1-c1ccccc1OC(F)(F)F [Example 189] | < 10000 |
| CS(=O)(=O)c1ccc(NC(=O)c2ccc(-c3ccccc3OC(F)(F)F)c(CNCCOc3ccccc3)c2)cc1 [Example 190] | < 10000 |
| CN(Cc1cc(C(=O)Nc2ccc(S(C)(=O)=O)cc2)ccc1-c1ccccc1OC(F)(F)F)C1CCCCC1 [Example 202] | 760 |
| CCC(C)(C)NCc1cc(C(=O)Nc2ccc(S(C)(=O)=O)cc2)ccc1-c1ccccc1OC(F)(F)F [Example 206] | < 10000 |
| CS(=O)(=O)c1ccc(NC(=O)c2ccc(-c3ccccc3OC(F)(F)F)c(CN[C@H]3CCCc4ccccc43)c2)cc1 [Example 211] | 910 |
| Cn1ccnc1CNCc1cc(C(=O)Nc2ccc(S(C)(=O)=O)cc2)ccc1-c1ccccc1OC(F)(F)F [Example 218] | 370 |
| CS(=O)(=O)c1ccc(NC(=O)c2ccc(-c3ccccc3OC(F)(F)F)c(CNCC3CCCCC3)c2)cc1 [Example 221] | < 10000 |
| CC(C)CCNCc1cc(C(=O)Nc2ccc(S(C)(=O)=O)cc2)ccc1-c1ccccc1OC(F)(F)F [Example 226] | < 10000 |
| CS(=O)(=O)c1ccc(NC(=O)c2ccc(-c3ccccc3OC(F)(F)F)c(CN[C@@H]3CCCc4ccccc43)c2)cc1 [Example 229] | < 100 |
| CN(Cc1ccc(F)cc1)Cc1cc(C(=O)Nc2ccc(S(C)(=O)=O)cc2)ccc1-c1ccccc1OC(F)(F)F [Example 231] | < 10000 |
| COc1cc(NC(=O)c2ccc(-c3ccccc3C(F)(F)F)c(C(O)C(F)(F)F)c2)ccc1S(N)(=O)=O (stereo not drawn) [Example 244] | 680 |
| COc1cc(NC(=O)c2ccc(-c3ccccc3-c3cccs3)c(CO)c2)ccc1S(N)(=O)=O [Example 257] | 84 |
| COc1cc(NC(=O)c2ccc(-c3ccccc3-c3nc(C)no3)c(CO)c2)ccc1S(N)(=O)=O [Example 259] | 450 |
| COc1cc(NC(=O)c2ccc(-c3ccccc3OC(F)(F)C(F)F)c(CO)c2)ccc1S(N)(=O)=O [Example 260] | 440 |
| CCN(CC)c1cc(C(=O)Nc2ccc(S(N)(=O)=O)cc2)ccc1-c1ccccc1OC(F)(F)F [Example 265] | 360 |
| COc1cc(NC(=O)c2ccc(-c3ccccc3C(F)(F)F)c(CNCC(F)F)c2)ccc1S(N)(=O)=O [Example 268] | 990 |
| COc1ccc(-c2ccc(C(=O)Nc3ccc(S(N)(=O)=O)c(OC)c3)cc2CNCC(F)F)c(C(F)(F)F)c1 [Example 270] | 650 |
| COc1cc(NC(=O)c2ccc(-c3ccc(N)cc3C(F)(F)F)c(C)c2)ccc1S(N)(=O)=O [Example 271] | 370 |

| SMILES | IC50 [nM] |
| --- | --- |
| COc1cc(NC(=O)c2ccc(-c3ccc(O)cc3C(F)(F)F)c(C)c2)ccc1S(N)(=O)=O [Example 272] | 400 |
| COc1cc(NC(=O)c2ccc(-c3ncccc3C(F)(F)F)c(C)c2)ccc1S(N)(=O)=O [Example 279] | 4100 |
| COc1cc(NC(=O)c2ccc(-c3cccnc3C3CCC3)c(C)c2)ccc1S(N)(=O)=O [Example 282] | 730 |
| COc1cc(NC(=O)c2ccc(-c3ccccc3OC(F)(F)F)c(CN3CCC(F)(F)CC3)c2)ccc1S(N)(=O)=O [Example 286] | 180 |
| COc1cc(NC(=O)c2ccc(-c3ccccc3OC(F)(F)F)c(CN3CC(F)(F)C3)c2)ccc1S(N)(=O)=O [Example 287] | 250 |
| COc1cc(NC(=O)c2ccc(-c3ccccc3OC(F)(F)F)c(CNC3CC3)c2)ccc1S(N)(=O)=O [Example 288] | 120 |
| COc1cc(NC(=O)c2ccc(-c3ccccc3OC(F)(F)F)c(CNC3CCC3)c2)ccc1S(N)(=O)=O [Example 289] | 360 |
| COc1cc(NC(=O)c2ccc(-c3ccccc3OC(F)(F)F)c(CNc3nnn[nH]3)c2)ccc1S(N)(=O)=O [Example 293] | 270 |
| COc1cc(NC(=O)c2ccc(-c3ccccc3OC(F)(F)F)c(CN(C)C3CC3)c2)ccc1S(N)(=O)=O [Example 294] | 22 |
| CCN(CC)Cc1cc(C(=O)Nc2ccc(S(N)(=O)=O)c(OC)c2)ccc1-c1ccccc1OC(F)(F)F [Example 295] | 100 |
| COc1cc(NC(=O)c2ccc(-c3ccccc3OC(F)(F)F)c(CN3CCCCC3)c2)ccc1S(N)(=O)=O [Example 297] | 190 |
| COc1cc(NC(=O)c2ccc(-c3ccccc3OC(F)(F)F)c(CN3CCCCCCC3)c2)ccc1S(N)(=O)=O [Example 299] | 140 |
| COc1cc(NC(=O)c2ccc(-c3ccccc3OC(F)(F)F)c(CN3CC(C)OC(C)C3)c2)ccc1S(N)(=O)=O (stereo not drawn) [Example 302] | 61 |
| COc1cc(NC(=O)c2ccc(-c3ccccc3OC(F)(F)F)c(CN3CCCOCC3)c2)ccc1S(N)(=O)=O [Example 303] | 150 |
| COc1cc(NC(=O)c2ccc(-c3ccccc3OC(F)(F)F)c(CN3CC(F)(F)C(F)(F)C3)c2)ccc1S(N)(=O)=O [Example 305] | 150 |
| COc1cc(NC(=O)c2ccc(-c3ccccc3OC(F)(F)F)c(CNC3=NCCO3)c2)ccc1S(N)(=O)=O [Example 309] | 230 |
| CCCOc1ccc(-c2ccc(NC(=O)c3ccc(S(N)(=O)=O)c(OC)c3)cc2CO)c(C(F)(F)F)c1 [Example 313] | 2200 |
| COc1cc(C(=O)Nc2ccc(-c3ccc(O)cc3C(F)(F)F)c(CO)c2)ccc1S(N)(=O)=O [Example 315] | 420 |
| COc1cc(C(=O)Nc2ccc(-c3ccc(OCCO)cc3C(F)(F)F)c(CO)c2)ccc1S(N)(=O)=O [Example 320] | 2500 |
| COc1cc(C(=O)Nc2ccc(-c3ccccc3C(F)(F)F)c(CO)c2)ccc1S(N)(=O)=O [Example 323-2] | 250 |
| COc1cc(C(=O)Nc2ccc(-c3ccccc3C(F)(F)F)c(CCl)c2)ccc1S(N)(=O)=O [Example 324] | 190 |
| COc1cc(C(=O)Nc2ccc(-c3ccccc3C(F)(F)F)c(CNCc3ccco3)c2)ccc1S(N)(=O)=O [Example 329] | 220 |
| COc1cc(C(=O)Nc2ccc(-c3ccccc3C(F)(F)F)c(COCCCO)c2)ccc1S(N)(=O)=O [Example 333] | 280 |
| COc1cc(C(=O)Nc2ccc(-c3ccccc3OC(F)(F)F)c(CCO)c2)ccc1S(N)(=O)=O [Example 335] | 350 |
| COc1cc(C(=O)Nc2ccc(-c3ccccc3CN3CCOCC3)c(C)c2)ccc1S(N)(=O)=O [Example 337] | 1100 |

— US20130116227A1, “BIARYL AMIDE DERIVATIVE OR PHARMACEUTICALLY ACCEPTABLE SALT THEREOF” (DAINIPPON SUMITOMO PHARMA CO., LTD., priority 2010, published 2013)
